{"source": "patent US4816490A", "about": "“Novel therapeutic use of a derivative of indane dione and the pharmaceutical compositions intended for this use” (priority 1987, dated 1989)", "key": {"[1]": {"tested_on": "male and female mice of Swiss strain", "test": "Acute toxicity after single intraperitoneal administration", "format": "in vivo", "conditions": "IP", "text": "Male and female mice of Swiss strain weighing from 22 to 25 g of body weight were free of pathogen specific organisms (EOPS), stemming from breeding CERJ (53860 LE GENEST (France) and acclimated for at least 8 days in the animalry of the firm.\nExcept where stipulated to the contrary, in the tables giving the results, 10 animals of the same sex for each dose were housed in cages of MAKROLON (Safi) of 40 cm by 25 cm filled with shaving of wood. Standard feeding for rats and mice, tablets UAR and tap water ad libitum.\nThe compounds were administered without previous fasting either orally (gastric tubing using a metallic oesophageous sonde) at a rate of 0.5 ml or 1 ml per 20 g of body weight of an aqueous suspension of the test compound in a 3% solution of arabic gum, or intraperitoneally at a rate of 0.5 ml or 1 ml per 20 g of body weight of the test compound suspended in an isotonic saline solution containing 3% of arabic gum.\nFor 6 days after the single administration and then every day for 15 days.\nWhen necessary, the mean lethal doses (LD 50) were calculated by the method of Behrens and Karber (BK) and Miller and Tainter (MT). The latter allowing to supply with, for the threshold of probability P=0.05 a limit of confidence for the LD 50. Further calculated were the LDo i.e. DMT=maximal doses always tolerated and the LD100 i.e. DMM=minimal doses always lethal."}, "[2]": {"conditions": "French patent 2,382,424; cited from earlier work"}, "[3]": {"tested_on": "hyperlipidaemia / atheroma in Wistar rats on atheromatogenous regimen", "test": "Biochemical testings in rats on atheromatogenous (cholesterol-rich) diet, including atheroma risk ratios", "format": "in vivo, rat", "text": "The method utilized for the test was that, slightly altered of Aubert D. Feraud J. C., Lacaze B., Pepino., Ponak E. et Podesta M. as described in Atherosclerosis, Vol. 20 (1974), p. 263-280 (Experimental Atherogenesis in the Wistar Rat).\nFemale rats of Wistar strain, free of specific pathogenic germs (EOPS) stemming from the breeding EVIC-CEBA\nMean body weight: 160-180 g at the start of the test\nDiet: standard tablets UAE AO 3 enriched in cholesterol (0.5%) and in cholic acid (0.5).\n15 animals per each batch and by cage in MACROLON (Safi) of 59 cm×38 cm, 5 cm filled with a litter of shavings of wood.\nDiet of the animals: the animals were given the atheromatogenous regimen then while maintaining the same regimen, they were given for 4 days 250,000 IU/kg of vitamin D2 dissolved in olive oil (Sterogyl 15H). The compounds to be tested were given thereafter for 4 weeks immediately after the termination of the atheromatogenous regimen.\nAt the end of these studies the following tests were performed on all surviving animals.\nEsterified blood cholesterol\nCholesterol in LDL (estimate)\nThe total score for each product was obtained by adding each individual scores and allowed the following classification\nThe protection against the atheromatogenous risk was evaluated using the following ratios: […]"}}, "data": [{"smiles": "COc1ccc(C(=O)CC2(O)C(=O)c3ccccc3C2=O)cc1OC", "note": "[Compound of the invention, 2-[(3,4-dimethoxy-benzoyl)-methyl]-2-hydroxy-1,3-dioxo Indane]", "values": [{"measurement": "Symptoms after injection", "setting": "[1]", "result": "crawling after the injection then a protracted prostation took place with piloerection and bradypnea cyanosis"}, {"measurement": "Mortality in 10 mice", "setting": "[1]; 2000 mg/kg, females", "result": 0}, {"measurement": "Mortality in 10 mice", "setting": "[1]; 2000 mg/kg, males", "result": 0}, {"measurement": "Mortality in 10 mice", "setting": "[1]; 2500 mg/kg, females", "result": 1}, {"measurement": "Mortality in 10 mice", "setting": "[1]; 2500 mg/kg, males", "result": 1}, {"measurement": "Mortality in 10 mice", "setting": "[1]; 3000 mg/kg, females", "result": 6}, {"measurement": "Mortality in 10 mice", "setting": "[1]; 3000 mg/kg, males", "result": 3}, {"measurement": "Late mortalities", "setting": "[1]; 3 to 4 g/kg, after 5 to 7 days", "result": "generally 1 death per dose for each sex"}, {"measurement": "Mortality in 10 mice", "setting": "[1]; 3500 mg/kg, females", "result": 8}, {"measurement": "Mortality in 10 mice", "setting": "[1]; 3500 mg/kg, males", "result": 5}, {"measurement": "Mortality in 10 mice", "setting": "[1]; 4000 mg/kg, females", "result": 10}, {"measurement": "Mortality in 10 mice", "setting": "[1]; 4000 mg/kg, males", "result": 8}, {"measurement": "Mortality in 10 mice", "setting": "[1]; 4500 mg/kg, females", "result": 10}, {"measurement": "Mortality in 10 mice", "setting": "[1]; 4500 mg/kg, males", "result": 10}, {"measurement": "Mortality in 10 mice", "setting": "[1]; 5000 mg/kg, females", "result": 10}, {"measurement": "Mortality in 10 mice", "setting": "[1]; 5000 mg/kg, males", "result": 10}, {"measurement": "LD100 (minimal dose always lethal)", "setting": "[1]; female mice", "result": 4000, "unit": "mg/kg"}, {"measurement": "LDo (maximal dose always tolerated)", "setting": "[1]; female mice", "result": 2000, "unit": "mg/kg"}, {"measurement": "LD100 (minimal dose always lethal)", "setting": "[1]; male mice", "result": 4500, "unit": "mg/kg"}, {"measurement": "LDo (maximal dose always tolerated)", "setting": "[1]; male mice", "result": 2000, "unit": "mg/kg"}, {"measurement": "Toxicity in comparison with Clofibrate", "setting": "[1]; single administration", "result": "markedly less toxic than Clofibrate"}, {"measurement": "Dose inducing an anti-inflammatory threshold effect", "setting": "[2]", "result": 250, "unit": "mg/kg"}, {"measurement": "Cholesterol in LDL / Cholesterol in HDL, % in comparison with Controls-Diet", "setting": "[3]; 100 mg/kg", "result": -36.10, "unit": "%"}, {"measurement": "Total Blood Cholesterol / Cholesterol in HDL, % in comparison with Controls-Diet", "setting": "[3]; 100 mg/kg", "result": -33.22, "unit": "%"}, {"measurement": "Cholesterol in HDL, variation in comparison to controls-Diet", "setting": "[3]; 100 mg/kg, 4 weeks", "result": -33.33, "unit": "%"}, {"measurement": "Esterified cholesterol, variation in comparison to controls-Diet", "setting": "[3]; 100 mg/kg, 4 weeks", "result": -57.70, "unit": "%"}, {"measurement": "Total Blood lipids, variation in comparison to controls-Diet", "setting": "[3]; 100 mg/kg, 4 weeks", "result": -48.47, "unit": "%"}, {"measurement": "Total blood cholesterol, variation in comparison to controls-Diet", "setting": "[3]; 100 mg/kg, 4 weeks", "result": -55.47, "unit": "%"}, {"measurement": "Triglycerids, variation in comparison to controls-Diet", "setting": "[3]; 100 mg/kg, 4 weeks", "result": -25.86, "unit": "%"}, {"measurement": "Cholesterol in LDL, variation in comparison to controls-Diet", "setting": "[3]; 100 mg/kg, 4 weeks, LDL (estimate)", "result": -57.41, "unit": "%"}, {"measurement": "Atheromatous risk total score", "setting": "[3]; 100 mg/kg, listed as Compound according to this invention", "result": 0.90}, {"measurement": "Atheromatous risk total score", "setting": "[3]; 100 mg/kg, listed as Compound of this invention", "result": 0.90}, {"measurement": "Activity on the biochemical level vs Clofibrate", "setting": "[3]; same doses, cholesterol-rich diet", "result": "as active as Clofibrate on the biochemical level"}]}]}
